ChEMBL document CHEMBL5620345, “Metal binding pharmacophore click-derived discovery of new broad-spectrum metallo-β-lactamase inhibitors” (Eur J Med Chem, 2023)

Key:
[1] = Inhibition of recombinant his tagged IMP1 (unknown origin) expressed in Escherichia coli (DE3) cells using FC5 as substrate by microplate reader assay
[2] = Inhibition of recombinant NDM1 (unknown origin) expressed in Escherichia coli (DE3) cells using FC5 as substrate by microplate reader assay
[3] = Inhibition of recombinant VIM-1 (unknown origin) expressed in Escherichia coli (DE3) cells using FC5 as substrate by microplate reader assay
[4] = Inhibition of recombinant his tagged VIM-2 (unknown origin) expressed in Escherichia coli (DE3) cells using FC5 as substrate by microplate reader assay
[5] = Inhibition of recombinant VIM-5 (unknown origin) expressed in Escherichia coli (DE3) cells using FC5 as substrate by microplate reader assay
Escherichia coli [6] = assay: Antibacterial activity against Escherichia coli BAA2452 expressing blaNDM-1 clinical isolates assessed as meropenem MIC incubated for 16 to 18 hrs by broth microdilution method; type: functional; settings: time 16-18 hrs; further: test concentration or dose not given here
Enterobacterales [7] = assay: Antibacterial activity against Carbapenem-Resistant Enterobacterales 19 expressing blaNDM-1 clinical isolates assessed as meropenem MIC incubated for 16 to 18 hrs by broth microdilution method; type: functional; settings: time 16-18 hrs; further: test concentration or dose not given here
Klebsiella pneumoniae [8] = assay: Antibacterial activity against Klebsiella pneumoniae BAA2470 expressing blaNDM-1 clinical isolates assessed as meropenem MIC incubated for 16 to 18 hrs by broth microdilution method; type: functional; settings: time 16-18 hrs; further: test concentration or dose not given here
Escherichia coli [9] = assay: Antibacterial activity against Escherichia coli C1580 expressing blaIMP-1 clinical isolates assessed as meropenem MIC incubated for 16 to 18 hrs by broth microdilution method; type: functional; settings: time 16-18 hrs; further: test concentration or dose not given here
Escherichia coli [10] = assay: Antibacterial activity against Escherichia coli C1541 expressing blaVIM-2 clinical isolates assessed as meropenem MIC incubated for 16 to 18 hrs by broth microdilution method; type: functional; settings: time 16-18 hrs; further: test concentration or dose not given here
Escherichia coli [11] = assay: Antibacterial activity against Escherichia coli BAA2452 expressing blaNDM-1 clinical isolates assessed as fold potentiation incubated for 16 to 18 hrs by broth microdilution method; type: functional; settings: time 16-18 hrs; further: test concentration or dose not given here
Enterobacterales [12] = assay: Antibacterial activity against Carbapenem-Resistant Enterobacterales 19 expressing blaNDM-1 clinical isolates assessed as fold potentiation incubated for 16 to 18 hrs by broth microdilution method; type: functional; settings: time 16-18 hrs; further: test concentration or dose not given here
Klebsiella pneumoniae [13] = assay: Antibacterial activity against Klebsiella pneumoniae BAA2470 expressing blaNDM-1 clinical isolates assessed as fold potentiation incubated for 16 to 18 hrs by broth microdilution method; type: functional; settings: time 16-18 hrs; further: test concentration or dose not given here
Escherichia coli [14] = assay: Antibacterial activity against Escherichia coli C1580 expressing blaIMP-1 clinical isolates assessed as fold potentiation incubated for 16 to 18 hrs by broth microdilution method; type: functional; settings: time 16-18 hrs; further: test concentration or dose not given here
Escherichia coli [15] = assay: Antibacterial activity against Escherichia coli C1541 expressing blaVIM-2 clinical isolates assessed as fold potentiation incubated for 16 to 18 hrs by broth microdilution method; type: functional; settings: time 16-18 hrs; further: test concentration or dose not given here

| SMILES | IC50 [1] [nM] | IC50 [2] [nM] | IC50 [3] [nM] | IC50 [4] [nM] | IC50 [5] [nM] | MIC (Escherichia coli [6]) [µg/mL] | MIC (Enterobacterales [7]) [µg/mL] | MIC (Klebsiella pneumoniae [8]) [µg/mL] | MIC (Escherichia coli [9]) [µg/mL] | MIC (Escherichia coli [10]) [µg/mL] | fold change (FC) (Escherichia coli [11]) | fold change (FC) (Enterobacterales [12]) | fold change (FC) (Klebsiella pneumoniae [13]) | fold change (FC) (Escherichia coli [14]) | fold change (FC) (Escherichia coli [15]) |
| --- | --- | --- | --- | --- | --- | --- | --- | --- | --- | --- | --- | --- | --- | --- | --- |
| Nc1cccc(-c2cn(-c3cccc(C(c4ccc(Cl)cc4)P(=O)(O)O)c3)nn2)c1 (stereo not drawn) | 540 | 670 | 340 | 1 | 0.43 | 16 | 8 | 64 | 2 | 1 | 8 | 8 | >2 | 16 | 16 |
| O=P(O)(O)Cc1cccc(-n2cc(-c3ccccc3Br)nn2)c1 | 1900 | 5200 | 7160 | 720 | 95 | 32 | 16 | 128 | 2 | 4 | 4 | 4 | >1 | 16 | 4 |
| Nc1cccc(-c2cn(-c3cccc(C(c4ccc(Br)cc4)P(=O)(O)O)c3)nn2)c1 (stereo not drawn) | 440 | 660 | 200 | 7 | 3 | 16 | 8 | 64 | 4 | 1 | 8 | 8 | >2 | 8 | 16 |
| N#Cc1ccc(C(c2cccc(-n3cc(-c4cccc(N)c4)nn3)c2)P(=O)(O)O)cc1 (stereo not drawn) | 110 | 1120 | 270 | 52 | 3 | 16 | 8 | 64 | 2 | 2 | 8 | 8 | >2 | 16 | 8 |
| NCCOc1ccc(-c2cn(-c3cccc(C(=O)O)c3C(=O)O)nn2)cc1 | 1830 | > 100000 | > 100000 | 3690 | > 100000 | 64 | 64 | > 128 | 0.25 | 32 | 2 | 1 |  | 128 |  |
| O=C(NCc1cn(-c2ccc(CP(=O)(O)O)cc2)nn1)C(F)(F)F | > 100000 | > 100000 | 27900 | 27200 | 31800 |  |  |  |  |  |  |  |  |  |  |

Continued, in another order:

| IC50 [1] [nM] | IC50 [2] [nM] | IC50 [3] [nM] | IC50 [4] [nM] | IC50 [5] [nM] | SMILES | MIC (Escherichia coli [6]) [µg/mL] | MIC (Enterobacterales [7]) [µg/mL] | MIC (Klebsiella pneumoniae [8]) [µg/mL] | MIC (Escherichia coli [9]) [µg/mL] | MIC (Escherichia coli [10]) [µg/mL] | fold change (FC) (Escherichia coli [11]) | fold change (FC) (Enterobacterales [12]) | fold change (FC) (Klebsiella pneumoniae [13]) | fold change (FC) (Escherichia coli [14]) | fold change (FC) (Escherichia coli [15]) |
| --- | --- | --- | --- | --- | --- | --- | --- | --- | --- | --- | --- | --- | --- | --- | --- |
| > 100000 | > 100000 | 26700 | 13300 | 7430 | O=P(O)(O)Cc1ccc(-n2cc(CNc3ccccc3)nn2)cc1 |  |  |  |  |  |  |  |  |  |  |
| > 100000 | 65500 | 11800 | 2030 | 1160 | Cc1cccc(-c2cn(-c3ccc(CP(=O)(O)O)cc3)nn2)c1 |  |  |  |  |  |  |  |  |  |  |
| 9500 | 27100 | 24600 | 4440 | 520 | CC(C)(C)c1cn(-c2cccc(CP(=O)(O)O)c2)nn1 |  |  |  |  |  |  |  |  |  |  |
| > 100000 | 16600 | 22100 | 2480 | 2280 | Nc1ccccc1-c1cn(-c2ccc(CP(=O)(O)O)cc2)nn1 |  |  |  |  |  |  |  |  |  |  |
| > 100000 | > 100000 | 23900 | 2690 | 14500 | NCc1cn(-c2cccc(CP(=O)(O)O)c2)nn1 |  |  |  |  |  |  |  |  |  |  |
